Here are results for eight compounds from ChEMBL document CHEMBL1201862, “PubChem BioAssay data set” (2004).

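Where inhibition never reached the appropriate level, the endpoint shown equals the highest concentration tested. Otherwise, values were interpolated linearly from a five-concentration, 48-hour dose response in 96-well plates. GI50: concentration for 50% inhibition of growth.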 Calls of active or inactive are those of the source. Rule as the data show it: active = GI50 up to about 1.1 µM and inactive = higher.

Test systems include SW-620; NCI-H522; RXF 393; Hs-578T; K562; OVCAR-3; DU-145; MCF7; SF-295; SK-OV-3; UACC-257; HCT-15; NCI-H23; T47D; SNB-19; HCC 2998; SR; NCI-H226; SK-MEL-5; IGROV-1.
Common to all, as to test: NCI tumour cell line growth inhibition, 48 h

Turning to `O=C(O)C1CC(c2ccc(F)cc2)=Nc2ccc(F)cc2S1` (centres undefined), the GI50 in the assay with SW-620, in the assay on NCI-H522, in the assay on RXF 393, in the assay with Hs-578T, with K562 and with OVCAR-3 was > 100 µM (inactive) in each case. The GI50 is > 100 µM (inactive) in the assay on DU-145; > 100 µM (inactive) with MCF7; > 100 µM (inactive) with SF-295; > 100 µM (inactive) in the assay with SK-OV-3; > 100 µM (inactive) in the assay with UACC-257; over 100 µM in the assay with HCT-15. The GI50 in the assay on NCI-H23 is > 100 µM (inactive); in the assay with T47D, > 100 µM (inactive); with SNB-19, > 100 µM (inactive); in the assay with HCC 2998, > 100 µM (inactive); in the assay with SR, > 10 µM (inactive); in the assay on NCI-H226, > 100 µM (inactive). The GI50 in the assay with SK-MEL-5 and in the assay on IGROV-1 was > 100 µM (inactive) in each case.
Take `O=C(O)c1cc2ccccc2c(/N=N/c2ccc(S(=O)(=O)Nc3ccccn3)cc2)c1O`: the GI50 in the assay on SW-620, with NCI-H522, with RXF 393, in the assay with Hs-578T, with K562 and in the assay with OVCAR-3 was > 100 µM (inactive) in each case. Besides, the GI50 is > 100 µM (inactive) with DU-145; > 100 µM (inactive) in the assay with MCF7; > 100 µM (inactive) with SF-295; > 100 µM (inactive) in the assay with SK-OV-3; > 100 µM (inactive) in the assay with UACC-257; over 100 µM with HCT-15. Moreover, the GI50 is > 100 µM (inactive) in the assay with T47D; < 0.01 µM (active) in the assay on SNB-19; > 100 µM (inactive) in the assay on HCC 2998; > 100 µM (inactive) in the assay on SR; > 100 µM (inactive) in the assay on NCI-H226; > 100 µM (inactive) in the assay with SK-MEL-5. In addition, in the assay on IGROV-1, the GI50 was > 100 µM (inactive).
Turning to `O=C(Nc1ccc2nc(-c3ccccc3)cn2c1)Oc1ccccc1`, the GI50 with SW-620 was 48.6 µM (inactive); in the assay with NCI-H522, 20.2 µM (inactive); in the assay with RXF 393, 0.893 µM (active); with Hs-578T, > 100 µM (inactive); with K562 it was 34.6 µM (inactive); in the assay with OVCAR-3 it was 38.6 µM (inactive). Further, the GI50 in the assay on DU-145 was 41.7 µM (inactive); in the assay with MCF7, 35.4 µM (inactive); with SF-295, 57.9 µM (inactive); in the assay on SK-OV-3 it was > 100 µM (inactive); with UACC-257, 36.1 µM (inactive); with HCT-15, 45.1 µM. Further, the GI50 is 99.1 µM (inactive) in the assay on NCI-H23; 19.1 µM (inactive) with T47D; 73.6 µM (inactive) in the assay with SNB-19; 25.2 µM (inactive) in the assay with HCC 2998; 19 µM (inactive) in the assay on SR; > 100 µM (inactive) in the assay with NCI-H226. For the same compound, the GI50 was 59.7 µM (inactive) in the assay on SK-MEL-5 and 57.3 µM (inactive) in the assay with IGROV-1.
On to `CCCCCCCCCC[C@@H](O)[C@@H]1CC[C@@H]([C@@H]2CC[C@@H]([C@@H](O)CCCCCCCCCC[C@H](O)CC3=CC(C)OC3=O)O2)O1` (some centres undefined), for which the GI50 in the assay with SW-620 was 3.78 µM (inactive); with NCI-H522 it was 1.72 µM (inactive); in the assay with RXF 393, 3.22 µM (inactive); in the assay on Hs-578T, 4.04 µM (inactive); with K562, 0.0318 µM (active); in the assay on OVCAR-3, 3.94 µM (inactive). For the same compound, the GI50 in the assay with DU-145 is 8.95 µM (inactive); in the assay on MCF7, 1.44 µM (inactive); in the assay on SF-295, 1.71 µM (inactive); with SK-OV-3 it was 3.92 µM (inactive); in the assay on UACC-257, 0.356 µM (active); in the assay on HCT-15, 3.45 µM. The GI50 is 2.63 µM (inactive) in the assay on T47D; 4.6 µM (inactive) in the assay on SNB-19; 4.31 µM (inactive) in the assay on HCC 2998; 2.05 µM (inactive) in the assay with SR; 1.29 µM (inactive) in the assay with NCI-H226; 0.0385 µM (active) with SK-MEL-5. For the same compound, in the assay with IGROV-1, the GI50 is 3.48 µM (inactive).
With `COc1ccc(C2Oc3ccc(Cl)cc3C=C2[N+](=O)[O-])cc1OC` (centres undefined), the GI50 in the assay with SW-620 was 0.188 µM (active); in the assay on NCI-H522, 1.05 µM (active); with RXF 393, 1.59 µM (inactive); with Hs-578T, 1.07 µM (active); in the assay on K562 it was 0.164 µM (active); in the assay with OVCAR-3 it was 0.719 µM (active). For the same compound, the GI50 in the assay on DU-145 was 1.62 µM (inactive); in the assay with MCF7, 0.776 µM (active); in the assay on SF-295, 1.48 µM (inactive); with SK-OV-3, 2.3 µM (inactive); in the assay with UACC-257, 1.41 µM (inactive); with HCT-15, 1.47 µM. For the same compound, the GI50 is 1.61 µM (inactive) with NCI-H23; 1.52 µM (inactive) in the assay on T47D; 1.92 µM (inactive) with SNB-19; 1.77 µM (inactive) in the assay on HCC 2998; 0.0661 µM (active) in the assay with SR; 1.64 µM (inactive) in the assay with NCI-H226. The GI50 with SK-MEL-5 was 1.53 µM (inactive); in the assay with IGROV-1 it was 1.56 µM (inactive).
As to `NCCOc1cccc(C2(N3CCCCC3)CCCCC2)c1`, the GI50 in the assay on SW-620 was 31.5 µM (inactive); in the assay with NCI-H522, 19.1 µM (inactive); with RXF 393 it was 22 µM (inactive); in the assay on Hs-578T it was 16.9 µM (inactive); in the assay on K562 it was 16 µM (inactive); with OVCAR-3, 34.2 µM (inactive). Moreover, the GI50 in the assay on DU-145 was > 100 µM (inactive); in the assay with MCF7, 38.8 µM (inactive); in the assay with SF-295 it was 28.8 µM (inactive); in the assay with SK-OV-3, > 100 µM (inactive); with UACC-257, 19 µM (inactive); in the assay with HCT-15, 38.9 µM. Moreover, the GI50 is > 100 µM (inactive) in the assay with NCI-H23; 52.6 µM (inactive) in the assay on T47D; > 100 µM (inactive) in the assay with SNB-19; 19.9 µM (inactive) in the assay on HCC 2998; 16.1 µM (inactive) in the assay on SR; > 100 µM (inactive) with NCI-H226. Besides, the GI50 with SK-MEL-5 was 16.5 µM (inactive).
As to `Cc1cc(S(=O)(=O)N=C2NCC(C)(C)CN2)c(S)cc1Cl`, the GI50 in the assay on SW-620 was 17.9 µM (inactive); with NCI-H522 it was 27.9 µM (inactive); in the assay on RXF 393 it was 38 µM (inactive); in the assay on Hs-578T, 32 µM (inactive); in the assay on K562 it was 25.5 µM (inactive); with OVCAR-3, 35.7 µM (inactive). Further, the GI50 with DU-145 was 83.6 µM (inactive); in the assay on MCF7, 42.5 µM (inactive); in the assay on SK-OV-3 it was > 100 µM (inactive); in the assay on UACC-257 it was 42.3 µM (inactive); with HCT-15, 42.7 µM; with T47D, 42.1 µM (inactive). The GI50 was 36.6 µM (inactive) with SNB-19; 67.6 µM (inactive) with HCC 2998; 37.9 µM (inactive) in the assay with SR; 32.1 µM (inactive) in the assay on NCI-H226; 17.2 µM (inactive) with SK-MEL-5; 38.9 µM (inactive) in the assay on IGROV-1.
`COC(=O)[C@H]1ON2O[C@@H](O[C@H]3CCCC[C@@H]3C(C)(C)c3ccccc3)C[C@@H]3CC[C@H]1[C@@]32C`: the GI50 in the assay on SW-620, with NCI-H522, with RXF 393, with Hs-578T, with K562 and in the assay on OVCAR-3 was > 100 µM (inactive) each time. Moreover, the GI50 in the assay with DU-145 is > 100 µM (inactive); with MCF7, > 100 µM (inactive); in the assay on SF-295, > 100 µM (inactive); with SK-OV-3, > 100 µM (inactive); with UACC-257, > 100 µM (inactive); in the assay with HCT-15, over 100 µM. For the same compound, the GI50 with NCI-H23, in the assay with T47D, with HCC 2998, in the assay with SR, with NCI-H226 and with SK-MEL-5 was > 100 µM (inactive) throughout. The GI50 with IGROV-1 was > 100 µM (inactive).
